Assay results reported in ChEMBL document CHEMBL1201862, “PubChem BioAssay data set” (2004).
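Growth conditions: 96-well plates. Treatment: test compound, 48 hours, 5 concentrations. Analysis: linear interpolation between bracketing concentrations; unreached endpoints set to highest concentration. The concentration for 50% growth inhibition is given as GI50.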 Calls of active or inactive are those of the source. Rule as the data show it: active = GI50 up to about 1.1 µM and inactive = higher.

What was measured:
Assay in all cases: growth of human tumour cells (NCI), 48 h
HT-29 = tested on: HT-29
NCI-H522 = tested on: NCI-H522
OVCAR-3 = tested on: OVCAR-3
OVCAR-8 = tested on: OVCAR-8
SW-620 = tested on: SW-620
LOX IMVI = tested on: LOX IMVI
UACC-62 = tested on: UACC-62
U-251 = tested on: U-251
SN12C = tested on: SN12C
NCI/ADR-RES = tested on: NCI/ADR-RES
SK-MEL-28 = tested on: SK-MEL-28
MCF7 = tested on: MCF7
SK-MEL-2 = tested on: SK-MEL-2
UACC-257 = tested on: UACC-257
SF-295 = tested on: SF-295
A498 = tested on: A498
IGROV-1 = tested on: IGROV-1
UO-31 = tested on: UO-31

Measured: GI50

Cc1ccc(S(=O)(=O)Nc2ccccc2C(=O)c2ccc(C)c(C)c2)cc1
inactive: HT-29 > 100 µM | NCI-H522 39.9 µM | OVCAR-3 83.9 µM | OVCAR-8 > 100 µM | SW-620 > 100 µM | LOX IMVI > 100 µM | UACC-62 88.5 µM | U-251 85.1 µM | SN12C > 100 µM | NCI/ADR-RES > 100 µM | SK-MEL-28 > 100 µM | MCF7 52.7 µM | SK-MEL-2 > 100 µM | UACC-257 53.1 µM | SF-295 75 µM | A498 94.6 µM | IGROV-1 34.6 µM | UO-31 > 100 µM

C/C=C\C(CC(=O)NCCC1CN(C(=O)c2ccccc2)c2ccccc21)CC(=O)OC (centres undefined)
inactive: HT-29 > 100 µM | NCI-H522 > 100 µM | OVCAR-3 > 100 µM | OVCAR-8 > 100 µM | SW-620 > 100 µM | UACC-62 > 100 µM | U-251 > 100 µM | NCI/ADR-RES > 100 µM | SK-MEL-28 > 100 µM | MCF7 > 100 µM | SK-MEL-2 > 100 µM | UACC-257 > 100 µM | SF-295 > 100 µM | A498 > 100 µM | IGROV-1 > 100 µM | UO-31 > 100 µM

COc1ccc(/C=N/n2c(=O)[nH]c3ccccc3c2=O)cc1
inactive: HT-29 > 100 µM | OVCAR-3 > 100 µM | OVCAR-8 > 100 µM | SW-620 > 100 µM | LOX IMVI > 100 µM | UACC-62 > 100 µM | U-251 > 100 µM | SN12C > 100 µM | NCI/ADR-RES > 100 µM | SK-MEL-28 > 100 µM | MCF7 > 100 µM | SK-MEL-2 > 100 µM | UACC-257 > 100 µM | SF-295 > 100 µM | A498 > 100 µM | IGROV-1 > 100 µM | UO-31 > 100 µM

O=C(COc1ccc(OCC(=O)N2C(=O)CC(=O)N(c3ccc(Cl)cc3)C2=S)cc1)N1C(=O)CC(=O)N(c2ccc(Cl)cc2)C1=S
inactive: HT-29 24.6 µM | NCI-H522 17 µM | SW-620 53.1 µM | UACC-62 16.8 µM | U-251 33.3 µM | SN12C 42 µM | NCI/ADR-RES 22.9 µM | SK-MEL-28 50.4 µM | MCF7 35.1 µM | SK-MEL-2 26.3 µM | UACC-257 36.1 µM | SF-295 34 µM | A498 47.3 µM | IGROV-1 10.8 µM | UO-31 31.7 µM

Cn1c(=O)c2c(no[n+]2[O-])c2ccccc21
inactive: HT-29 17.5 µM | NCI-H522 13.6 µM | OVCAR-3 22.1 µM | OVCAR-8 12.7 µM | SW-620 20 µM | LOX IMVI 10.9 µM | UACC-62 16.7 µM | U-251 15.8 µM | SN12C 22.8 µM | NCI/ADR-RES 20.8 µM | MCF7 24.7 µM | SK-MEL-2 12.4 µM | UACC-257 15.3 µM | SF-295 21.6 µM | A498 31.9 µM | IGROV-1 7.24 µM | UO-31 24.3 µM

CC(=O)Nc1ccc(C(=O)NN2C(=O)CSC2c2ccc([N+](=O)[O-])cc2)cc1 (centres undefined)
inactive: HT-29 > 100 µM | OVCAR-3 > 100 µM | OVCAR-8 > 100 µM | SW-620 > 100 µM | UACC-62 > 100 µM | U-251 > 100 µM | SN12C > 100 µM | NCI/ADR-RES > 100 µM | SK-MEL-28 > 100 µM | MCF7 > 100 µM | SK-MEL-2 > 100 µM | UACC-257 > 100 µM | SF-295 > 100 µM | A498 > 100 µM | IGROV-1 > 100 µM | UO-31 > 100 µM
